This passage reports Ki results from BindingDB's records for doi:10.1016/j.ejmech.2020.112034 (Shiv Nadar University, 2020).

For experiment [1], the target named is T1, Maltase-glucoamylase (Homo sapiens, UniProt O43451). Kind of experiment: Mixed type inhibition of alpha-glucosidase (unknown origin) using p-nitrophenyl-alpha-D glucopyranoside as substrate incubated for 30 mins by Lineweaver-Burk plot analysis.
Experiment [2] addresses T1, Maltase-glucoamylase. Kind of experiment: Non-competitive inhibition of alpha-glucosidase (unknown origin) using p-nitrophenyl-alpha-D glucopyranoside as substrate incubated for 30 mins by Lineweaver-Burk plot analysis.

T1 sequence (O43451 whole entry): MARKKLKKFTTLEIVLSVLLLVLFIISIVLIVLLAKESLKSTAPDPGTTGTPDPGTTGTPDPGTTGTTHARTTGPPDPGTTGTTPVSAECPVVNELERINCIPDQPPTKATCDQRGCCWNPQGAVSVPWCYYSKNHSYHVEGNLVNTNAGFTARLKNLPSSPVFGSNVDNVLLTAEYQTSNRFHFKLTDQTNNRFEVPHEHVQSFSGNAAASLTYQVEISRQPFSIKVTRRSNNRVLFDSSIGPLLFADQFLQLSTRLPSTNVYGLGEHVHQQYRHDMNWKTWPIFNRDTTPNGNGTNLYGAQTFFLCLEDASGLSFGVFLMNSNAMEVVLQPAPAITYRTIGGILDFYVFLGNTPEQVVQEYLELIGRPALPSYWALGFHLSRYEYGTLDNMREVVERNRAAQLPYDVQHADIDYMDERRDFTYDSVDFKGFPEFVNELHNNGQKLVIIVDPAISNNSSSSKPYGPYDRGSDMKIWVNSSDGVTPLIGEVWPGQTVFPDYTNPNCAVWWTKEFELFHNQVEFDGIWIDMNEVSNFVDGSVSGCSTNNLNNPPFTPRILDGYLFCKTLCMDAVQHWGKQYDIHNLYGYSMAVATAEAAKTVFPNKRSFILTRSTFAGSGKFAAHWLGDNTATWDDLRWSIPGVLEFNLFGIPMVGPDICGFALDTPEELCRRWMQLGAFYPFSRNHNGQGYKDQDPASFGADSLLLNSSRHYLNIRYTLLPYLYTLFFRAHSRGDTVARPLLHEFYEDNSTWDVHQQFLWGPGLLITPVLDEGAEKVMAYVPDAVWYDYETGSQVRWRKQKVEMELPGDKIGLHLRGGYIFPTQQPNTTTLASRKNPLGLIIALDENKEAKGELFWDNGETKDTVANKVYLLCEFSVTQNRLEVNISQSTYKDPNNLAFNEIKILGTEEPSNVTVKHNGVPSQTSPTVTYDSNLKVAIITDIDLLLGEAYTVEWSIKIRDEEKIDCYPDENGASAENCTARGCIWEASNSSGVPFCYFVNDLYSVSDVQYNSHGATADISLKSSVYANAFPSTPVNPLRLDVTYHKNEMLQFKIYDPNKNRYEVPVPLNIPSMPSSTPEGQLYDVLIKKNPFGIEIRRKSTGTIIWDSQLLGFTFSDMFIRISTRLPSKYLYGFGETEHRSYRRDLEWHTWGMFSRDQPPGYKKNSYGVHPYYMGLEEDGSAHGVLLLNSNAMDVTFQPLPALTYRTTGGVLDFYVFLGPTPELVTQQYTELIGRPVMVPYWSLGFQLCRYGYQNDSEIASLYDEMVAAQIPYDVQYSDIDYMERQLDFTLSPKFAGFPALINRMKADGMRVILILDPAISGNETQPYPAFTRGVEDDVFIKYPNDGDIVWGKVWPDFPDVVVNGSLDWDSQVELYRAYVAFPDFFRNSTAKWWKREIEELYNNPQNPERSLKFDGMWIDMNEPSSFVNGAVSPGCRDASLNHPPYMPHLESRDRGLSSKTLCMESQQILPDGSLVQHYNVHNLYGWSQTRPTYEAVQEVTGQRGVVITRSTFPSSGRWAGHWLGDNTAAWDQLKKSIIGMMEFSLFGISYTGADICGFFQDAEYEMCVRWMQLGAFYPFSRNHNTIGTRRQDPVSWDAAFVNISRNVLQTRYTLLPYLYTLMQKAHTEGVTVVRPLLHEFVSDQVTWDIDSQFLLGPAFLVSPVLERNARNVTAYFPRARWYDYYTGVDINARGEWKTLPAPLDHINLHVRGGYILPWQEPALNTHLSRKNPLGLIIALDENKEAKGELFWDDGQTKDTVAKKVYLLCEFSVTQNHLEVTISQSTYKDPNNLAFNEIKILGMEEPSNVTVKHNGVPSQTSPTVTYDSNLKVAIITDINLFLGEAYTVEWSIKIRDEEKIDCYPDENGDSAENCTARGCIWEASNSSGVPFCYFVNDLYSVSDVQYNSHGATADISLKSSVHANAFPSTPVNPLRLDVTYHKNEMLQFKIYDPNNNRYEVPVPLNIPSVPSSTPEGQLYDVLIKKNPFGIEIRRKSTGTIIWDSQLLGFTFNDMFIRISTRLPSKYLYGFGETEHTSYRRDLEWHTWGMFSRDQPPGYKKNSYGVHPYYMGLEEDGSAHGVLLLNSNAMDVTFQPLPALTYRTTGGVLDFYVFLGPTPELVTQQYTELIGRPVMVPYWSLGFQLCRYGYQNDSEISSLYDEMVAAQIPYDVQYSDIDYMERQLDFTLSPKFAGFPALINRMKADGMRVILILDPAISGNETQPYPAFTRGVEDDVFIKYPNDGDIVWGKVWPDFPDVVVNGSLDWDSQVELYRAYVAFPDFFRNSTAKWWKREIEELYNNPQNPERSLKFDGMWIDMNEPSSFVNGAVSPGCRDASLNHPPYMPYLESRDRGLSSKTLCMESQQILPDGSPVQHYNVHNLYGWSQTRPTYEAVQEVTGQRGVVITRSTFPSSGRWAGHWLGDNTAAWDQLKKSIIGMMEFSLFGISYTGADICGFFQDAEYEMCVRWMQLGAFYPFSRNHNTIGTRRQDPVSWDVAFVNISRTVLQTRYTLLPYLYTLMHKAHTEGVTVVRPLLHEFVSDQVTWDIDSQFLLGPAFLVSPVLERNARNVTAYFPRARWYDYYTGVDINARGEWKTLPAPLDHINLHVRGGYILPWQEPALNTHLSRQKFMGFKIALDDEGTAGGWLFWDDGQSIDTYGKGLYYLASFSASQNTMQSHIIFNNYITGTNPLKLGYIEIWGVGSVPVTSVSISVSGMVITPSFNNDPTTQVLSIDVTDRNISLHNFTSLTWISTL

In general, Ki refers to the dissociation constant of the complex between target and ligand, obtained from inhibition or displacement. At Maltase-glucoamylase [1], `CC(C)=CCc1cc(-c2oc3cc(O)c(CC=C(C)C)c(O)c3c(=O)c2O)cc(O)c1O` [CHEBI:66727] displayed a Ki of 2300 nM.

`CC(C)=CCc1cc(C(=O)/C=C/c2ccc(O)c(O)c2)c(O)cc1O` [broussochalcone A] yielded a Ki at Maltase-glucoamylase [2] of 5.3 µM.
